1 compound from US9315487B2, “Tetrahydroquinoline derivatives useful as bromodomain inhibitors” (GlaxoSmithKline LLC, priority 2011, dated 2016) can be followed below.

Values joined by “and” are separate entries in the source; they are usually repeats but may differ in a detail not shown here. Identical values can stand only once.

One data set has as its target T1, Bromodomain BRD2 (Homo sapiens, UniProt P25440).
T1 construct: BRD2 (1-473); made in house; host or cells: E. coli (pET15b vector)
As to the kind of experiment: Time Resolved Fluorescence Resonance Energy Transfer (TR-FRET) assay, BRD2. The class given is binding. As to conditions: BRD2 (1-473), acetylated histone peptide. On the procedure:
(§1) Time Resolved Fluorescence Resonance […] Transfer (TR-FRET) Assay
(§2) The binding of the compounds of formula (I) to Bromodomains BRD2, BRD3 and BRD4 was assessed using a time resolved fluorescent resonance energy transfer binding assay, that measures the binding of an acetylated histone peptide to the bromodomain protein.
(§3) The bromodomain protein, histone peptide and a variable concentration of test compound are incubated together to reach thermodynamic equilibrium.
(§4) The protected peptide was assembled on a solid-phase synthesiser using preloaded Wang resin and utilising standard Fmoc synthesis protocols. The C-terminal lysine was protected by a hyper acid-labile group allowing for its selective removal at the end of the assembly and attachment of the biotin. The crude peptide was obtained after cleavage from the resin with a mixture of trifluoroacetic acid (TFA), triisopropylsilane and water (95:2.5:2.5) for 3 h at room temperature and was then purified using a C18 reverse-phase column utilising a 0.1% TFA-buffered water/acetonitrile gradient. The resulting fractions were analysed and fractions which were >95% pure by analytical HPLC and giving the correct mw (by MALDiTOF mass spectroscopy) were pooled and freeze dried. The final material was analysed by HPLC to confirm purity.
(§5) Recombinant Human Bromodomains (BRD2 (1-473), BRD3 (1-435) and BRD4 (1-477)) were expressed in E. coli cells (in pET15b vector) with a six-His tag at the N-terminal. The His-tagged Bromodomain was extracted from E. coli cells using sonication and purified using a nickel sepharose 6FF column, the proteins were washed and then eluted with 50 mM Tris-Hcl pH8.0. 300 mM NaCl, 1 mM β-mercaptoethanol and 20 mM Imidazole. Further purification was performed by affinity chromatography on a HisTRAP HP column, eluting with a linear 0-500 mM […] gradient, over 20 column volumes. Final purification was completed by Superdex 200 prep grade size exclusion column. Purified protein was stored at −80 C in 20 mM HEPES pH 7.5 and 100 mM NaCl. Protein identity was confirmed by peptide mass fingerprinting and predicted molecular weight confirmed by mass spectrometry.
(§6) Protocol for Bromodomain BRD2, 3 and 4 Assays:
(§7) All assay components were dissolved in buffer composition of 50 mM HEPES pH7.4, 50 mM NaCl and 0.5 mM CHAPS. The final concentration of bromodomain proteins were 100 nM and the histone peptide was 300 nM, these components are premixed and allowed to equilibrate for 1 hour in the dark. 8 μl of this reaction mixture was added to all wells containing 50 nl of various concentrations of test compound or DMSO vehicle (0.5% final) in Greiner 384 well black low volume microtitre plates and incubated in dark for 60 mins at room temperature. […] detection mixture containing anti-6his XL665 labeled antibody and streptavidin labeled with europium cryptate was added to all wells and a further dark incubation of at least 30 mins was performed. Plates were then read on the Envision platereader, (λex=317 nm, donor λEM=615 nm; acceptor λEM=665 nm; Dichroic LANCE dual). Time resolved fluorescent intensity measurements were made at both emission wavelengths and the ratio of acceptor/donor was calculated and used for data analysis. All data was normalized to the mean of 16 high and 16 low control wells on each plate. A four parameter curve fit of the following form was then applied: y=a+((b−a)/(1+(10^x/10^c)^d)
(§8) Where ‘a’ is the minimum, ‘b’ is the Hill slope, ‘c’ is the pIC50 and ‘d’ is the maximum.

In another data set the target is T2, Bromodomain BRD3 (Homo sapiens, UniProt Q15059).
T2 construct: BRD3 (1-435); made in house; host or cells: E. coli (pET15b vector)
T2 sequence (Q15059 1-435): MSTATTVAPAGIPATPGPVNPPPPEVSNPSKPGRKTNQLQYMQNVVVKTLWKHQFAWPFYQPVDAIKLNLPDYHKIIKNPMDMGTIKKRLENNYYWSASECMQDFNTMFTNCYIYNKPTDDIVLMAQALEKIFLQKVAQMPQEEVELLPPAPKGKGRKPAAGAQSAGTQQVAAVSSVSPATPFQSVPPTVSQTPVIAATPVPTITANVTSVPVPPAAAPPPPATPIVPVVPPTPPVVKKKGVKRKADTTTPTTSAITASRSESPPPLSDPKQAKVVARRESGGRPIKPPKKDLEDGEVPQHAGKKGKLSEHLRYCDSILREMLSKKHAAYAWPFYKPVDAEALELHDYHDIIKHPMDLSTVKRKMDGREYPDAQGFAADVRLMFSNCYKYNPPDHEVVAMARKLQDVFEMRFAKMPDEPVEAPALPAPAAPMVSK
As to the kind of experiment: Time Resolved Fluorescence Resonance Energy Transfer (TR-FRET) assay, BRD3. To be noted: BRD3 (1-435), acetylated histone peptide. The class given is binding. On the procedure:
as §1, §2, §3, §4, §5, §6, §7, §8

The target of another data set is T3, Bromodomain BRD4 (Homo sapiens, UniProt O60885).
T3 construct: BRD4 (1-477); made in house; host or cells: E. coli (pET15b vector)
Put plainly: Time Resolved Fluorescence Resonance Energy Transfer (TR-FRET) assay, BRD4. The class given is binding. As to conditions: BRD4 (1-477), acetylated histone peptide. The protocol: as §1, §2, §3, §4, §5, §6, §7, §8
(Time-resolved FRET reads energy transfer from a long-lived donor to a nearby acceptor.)

Data set [1] relates to LPS induced IL-6 secretion from whole blood. As to the kind of experiment: Measurement of LPS induced IL-6 secretion from whole blood. Format: cell-based. As to conditions: 24 h, LPS 200 ng/ml, IL-6 by immunoassay. On the procedure: Measurement of LPS Induced IL-6 Secretion from Whole Blood
Activation of monocytic cells by agonists of toll-like receptors such as bacterial lipopolysaccharide (LPS) results in production of key inflammatory mediators including IL-6. Such pathways are widely considered to be central to the pathophysiology of a range of auto-immune and inflammatory disorders.
Compounds to be tested are diluted to give a range of appropriate concentrations of which 1 μl of the diluted stocks is added to a 96 well plate. Following addition of whole blood (130 μl) the plates are incubated at 37 degrees (5% CO2) for 30 min before the addition of 10 μl of 2.8 ug/ml LPS, diluted in complete RPMI 1640 (final concentration=200 ng/ml), to give a total volume of 140 ul per well. After further incubation for 24 hours at 37 degrees, 140 μl of PBS are added to each well. The plates are sealed, shaken for 10 minutes and then centrifuged (2500 rpm×10 min). 100 μl of the supernatant are removed and IL-6 levels assayed by immunoassay (typically by MesoScale Discovery technology) either immediately or following storage at −20 degrees. Concentration response curves for each compound was generated from the data and an IC50 value was calculated

Data set [2] deals with W12 cells (episomal HPV16 genomes). Put plainly: Measurement of HPV infected cells: W12 cell viability. The class given is cell-based. To be noted: Human papillomavirus 16, 48 h, 2 days. The protocol:
(§9) Measurement of HPV Infected Cells The […] cell clone #20850, derived from a low grade cervical […] (Stanley et al., Int. J. Cancer. V. 43. p. 672-676. 1989), carries episomal HPV16 genomes, maintained at approximately 100 copies per cell. Epithelial cell line C33A, which is not infected with any HPV strain was used as a negative control cell to assess non-specific cytotoxicity. […] and C33A cells were cultured with the compound of Example 2 for 2 days and viable cell content monitored by assaying [ATP] at end of this period. Data was normalised to DMSO control treated cells on day 2.

Data set [3] can be described thus: Measurement of HPV infected cells: C33A negative control cell viability. Format: cell-based. As to conditions: human, 3 μM, normalised to DMSO control, read-out: Viability at the maximal tested concentration. The protocol: as §9
Another data set has as its system C33A cells. Described as above. The class given is cell-based. As to conditions: 2 days, [ATP] assay. On the procedure:
as §9

T1 sequence (P25440 1-473): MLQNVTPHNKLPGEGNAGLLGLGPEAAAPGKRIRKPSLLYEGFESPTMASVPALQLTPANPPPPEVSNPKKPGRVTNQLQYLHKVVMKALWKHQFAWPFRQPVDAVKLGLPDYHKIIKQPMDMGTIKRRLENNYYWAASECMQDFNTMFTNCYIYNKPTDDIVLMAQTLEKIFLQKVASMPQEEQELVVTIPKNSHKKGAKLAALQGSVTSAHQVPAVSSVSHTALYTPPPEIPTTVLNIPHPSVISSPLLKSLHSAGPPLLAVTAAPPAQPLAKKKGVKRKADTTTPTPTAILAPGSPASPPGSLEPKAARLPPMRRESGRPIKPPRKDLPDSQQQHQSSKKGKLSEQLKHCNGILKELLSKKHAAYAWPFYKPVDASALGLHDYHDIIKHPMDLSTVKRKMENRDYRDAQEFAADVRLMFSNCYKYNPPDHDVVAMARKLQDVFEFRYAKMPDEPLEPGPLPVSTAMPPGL

Take `COCCn1cc(-c2ccc3c(c2)[C@H](Nc2ccc(C#N)cn2)C[C@H](C)N3C(C)=O)cn1` [Example 2, 6-(((2S,4R)-1-acetyl-6-(1-(2-methoxyethyl)-1H-pyrazol-4-yl)-2-methyl-1,2,3,4-tetrahydroquinolin-4-yl)amino)nicotinonitrile]: the IC50 is 63.1 to 126 nM and 63.1 to 316 nM on Bromodomain BRD2; 63.1 to 126 nM and 63.1 to 316 nM against Bromodomain BRD3; 63.1 to 126 nM and 63.1 to 316 nM against Bromodomain BRD4; 200 nM in data set [1]; 81.3 nM in data set [2] ([ATP] assay, n=4, read-out: mean pIC50 value, W12 cell viability (converted)). The viability at 3 µM in data set [2] (3 μM, normalised to DMSO control, read-out: Viability at the maximal tested concentration) came to 34.8%. For the same compound, the viability at 2 days, 3 µM in data set [3] was found to be 73.5%. For the same compound, the “effect on C33A negative control cells (viability)” value with C33A cells is “limited effect”.
